Experimental data: US4904669A, “Thiazolo/4,5-c/quinolines as major tranquilizers” (EGIS Gyogyszergyar, priority 1985, dated 1990)

What was measured:
[1] = Acute toxicity (Litchfield and Wilcoxon); details: rat, in vivo, deaths within 48 h
pain reactions = experiment: Hot plate test; type: in vivo, rats; details: Rattus norvegicus, 56° C. plate, 1 h after administration
Description: The method of Woolfe and McDonald (1944) modified by Porszasz and Herr (1950) was used. The effect of each dose of the drugs was checked on a group of 10 rats. The experiments were performed on metal plates maintained at 56° C. The latency time of pain reactions was determined prior to and 1 h after the administration of the test compound. It was regarded as 100% effect if the reaction time was prolonged by more than 2.5 times the control value.

writhing = experiment: Writhing test (peritoneal), acetic acid; type: in vivo; details: Mus musculus, mice, acetic acid i.p.
Description: The method originally described by […] (1956) for rats modified by Witkin et al. (1961) and Koster and Anderson (1959), respectively, for mice was applied. Each dose was administered to a group of ten mice and after 20 min. 60 mg/kg of 0.6% acetic acid solution was injected i.p. As a result of chemical irritation of the peritoneum a characteristic writhing can be observed in 90% of control animals. Ten animals treated with compounds under test were kept under observation for 20 min. following i.p. injection of acid. The analgetic effect of individual doses was expressed in per cent: [formula] The denominator was taken as 90% on the basis of preliminary control examination and the […] literature.

[2] = test system: conditioned reflex (CR) / unconditioned reflex (UR); experiment: Screening test, learning and retention during one session conditioning; type: in vivo, rats
Description: I was elaborated for studing learning and retention of rats during one session conditioning.
During conditioning rats are trained to jump onto the top of glass cylinder by the electric foot-shock (110 V). The escape reaction (unconditioned reflex, UR) is paired with a bell as conditioned stimulus. The criterion of learning is that conditioned reflex (CR) should be elicited 10 times with 10 s intervals without reinforcement. Retention of CR is taken positive when 24 h following the experiment CR can be elicited. In these experiments animals are distributed into 4 categories on the basis of their learning ability.

Row | SMILES | LD50 at 48 h ([1]; iv) [mg/kg] | LD50 at 48 h ([1]; po, starved 16 h) [mg/kg] | LD50 at 48 h ([1]; sc) [mg/kg] | ED50 (pain reactions; po) [mg/kg] | ED50 (pain reactions; sc) [mg/kg] | ED50 (writhing; po) [mg/kg] | ED50 (writhing; sc) [mg/kg] | inhibition of development of conditioned reflex ([2]; 10 mg/kg) | inhibition of development of conditioned reflex ([2]; 25 mg/kg) | inhibition of developing conditioned reflex ([2]; 0.025 mg/kg)
1 | Cl.c1ccc2c(c1)ncc1ncsc12 [Thiazolo[4,5-c]quinoline-hydrochloride, thiazolo[4,5-c]quinoline-hydrochloride] | 55 | 350 | 260 | 60 | 7.5 | 82 | 32 | strong inhibition | complete inhibition | –
2 | O=C(CCCN1CCC(O)(c2ccc(Cl)cc2)CC1)c1ccc(F)cc1 [haloperidol, reference compound] | – | – | – | – | – | – | – | – | – | strong inhibition
